# Measurements reported in US20230100367A1, “METHODS OF TREATING CDGSH IRON SULFUR DOMAIN 2 INSUFFICIENCY-ASSOCIATED DISORDERS” (National Yang Ming Chiao Tung University, priority 2021, published 2023).
# pEC50: −log10 of the molar value.
# Key:
# [1] = system: Cisd2 promoter with firefly luciferase reporter (HEK293-CISD2); assay: Cisd2-luciferase reporter assay; format: cell-based; settings: Homo sapiens; HEK293-CISD2 cells, 24 h incubation, luciferase activity
# Procedure: Compounds 1-35 were tested for increasing the level of Cisd2 in human embryonic kidney cells 293 (HEK293), a transfected cell line expressing Cisd2, using the Cisd2-luciferase reporter assay as described below.
# The transfected HEK293 cells stably expressed Cisd2 promoter with firefly luciferase reporter (“HEK293-CISD2”). They were kept in Dulbecco's modified Eagle's medium (“DMEM”) (Gibco, New York, N.Y.). Culture medium was supplemented with 10% heat-inactivated fetal bovine serum (“FBS”), 2 mM L-Glutamine, 1 mM sodium pyruvate, 0.1% MEM Non-Essential Amino Acids, 1 μg/ml puromycin and 1% penicillin/streptomycin (HyClone, Logan, Utah). The cells were maintained at 37° C. in an incubator (Thermo Fisher Scientific, Waltham, Mass.) with an atmosphere of 5% CO2. The stably transfected cells were seeded in 384-well plates at a density of 3×10^3 cells/well. After incubation with a tested compound at 37° C. for 24 h, ONE-Glo™ Luciferase Assay System (Promega, Madison, Wis.) was added at room temperature for 10 minutes to detect any luciferase activity. Luminescence intensity was registered using plate reader BioTek Synergy Neo2™ (Agilent, Santa Clara, Calif.).
# EC50 values in this table are presented in […] classes, i.e., A: <1 μM and B: 1 μM-10 μM.
# Cisd2 hKO-het mice = assay: In vivo study for treating nonalcoholic fatty liver disease (NAFLD); settings: 0.015 wt % in diet for 4 weeks
# Procedure: Compound 1 was evaluated for its anti-nonalcoholic fatty liver disease (“NAFLD”) effect and in vivo toxicity following an assay described below.
# Cisd2 floxed allele (Cisd2 f/f) mice were prepared following a procedure described in Wang et al., Hum. Mol. Genet.23, 4770-85 (2014). To obtain Cisd2 heterozygous hepatocyte-specific knockout (Cisd2 hKO-het, Cisd2 f/+; Alb-Cre Tg), Cisd2 f/f mice were bred with Albumin-Cre transgenic (Alb-Cre Tg, JAX003574) mice. After one generation, Cisd2 hKO-het mice were obtained. Male mice were chosen to be used in this study. All mice have a pure or congenic C57BL/6 background and were bred/housed in a specific pathogen-free facility with a 12 h light/12 h dark cycle at a temperature of 20-22° C. Groups of mice at 8 weeks old were provided a diet (AIN93G, TestDiet) containing a vehicle (0.14 wt % of DMF and 0.15 wt % of Cremophor® EL) or compound 1 (0.015 wt %) for 4 weeks.
# Histopathology was used to evaluate the efficacy of Compound 1 in ameliorating NAFLD. Liver tissues were collected and fixed with 10% neutral buffered formalin at 4° C. overnight. They were then processed in a tissue processor (STP120, Microm, Thermo Fisher Scientific Inc., Waltham, Mass.), followed by embedding in paraffin. H&E of tissue sections (3-4 μm) were carried out by a standard protocol. […]
# WT mice = assay: In vivo fructose-induced NASH model, wild-type mice; settings: 0.015 wt % in diet for 5 months
# Description: Compound 1 was used to alleviate nonalcoholic steatohepatitis (NASH) in wild-type and Cisd2 hKO male mice described above.
# Cisd2 hKO were bred for two generations. […] They were fed 30% (w/v) fructose (Alfa Aesar, Tewksbury, Mass.) in drinking water to establish a fructose-induced NASH model. Groups of mice at 2 months old were provided with a diet (AIN93G, TestDiet, St. Louis, Mo.) containing a vehicle (0.14 wt % of DMF and 0.15 wt % of Cremophor® EL) or Compound 1 (0.015 wt %) for 5 months. The food and drinking water were provided ad libitum.
# Histopathology was used to evaluate the efficacy of Compound 1 in alleviating NASH. Liver tissues were processed and stained as described in Example 3 above.
# An oral glucose tolerance test (GTT) and an insulin tolerance test (ITT) were performed to study beneficial effects of Compound 1 in the fructose-induced glucose intolerance and hepatic insulin resistant mouse model. In the oral glucose tolerance test, mice were fasted for 14 hours (7 p.m. to 9 a.m.) and then were orally administrated with glucose water (1.5 mg/g body weight) using a feeding needle. […] Blood glucose levels were measured using OneTouch® Ultra glucose test strips and SureStep® Meter (LifeScan, Milpitas, Calif.). […] Blood samples were collected and monitored at predetermined time points.
smiles,measurement,setting,value
"COC(=O)c1c(N)sc(C(=O)Nc2ccc(C)cc2C)c1C [Compound 1, Methyl 2-amino-5-[(2,4-dimethylphenyl)carbamoyl]-4-methylthiophene carboxylate]",pEC50,[1],> 6.00
same,"liver and kidney toxicity (serum ALT, AST, BUN, CRE)",Cisd2 hKO-het mice,without detectable liver and kidney toxicity
same,expression level of Cisd2 protein,"Cisd2 hKO-het mice; Cisd2+/- mice, control group 0.43",0.7
same,toxicity,WT mice,without obvious toxicity
same,Cisd2 protein level,"WT mice; 30% fructose in drinking water, control group 0.4",0.8
